This note sets out measurements from patent publication US20230137092A1, “Composition and Method for the Treatment and Prevention of Cardiac, Pulmonary, Dermal, and Renal Fibrosis” (EMERALD HEALTH PHARMACEUTICALS INC., priority 2020, published 2023).

The test system of one assay is ERK1+2. Nature of the assay: Ang II-induced ERK1+2 phosphorylation in hICF, immunoblot. It is filed as cell-based, human. The following applies: hICF preincubated with compound, Ang II for 30 minutes. On the procedure: The effect of compound of Formula (VIII) on Ang II signaling pathways in hICF was investigated. ERK1+2 and NFAT activation are two pathways activated by Ang-II (Wakatsuki et al., 2004, Trends Biochem Sci, 29:609-617). hICF were preincubated with compound of Formula (VIII), treated with Ang II for 30 minutes, washed with PBS and proteins extracted in 50 μL of lysis buffer (50 mM Tris-HCl pH 7.5, 150 mM NaCl, 1% (v/v) NP-40, 10% (v/v) glycerol, 10 mM NaF, 1 mM Na3VO4, aprotinin (10 μg/ml), leupeptine (10 μg/ml), pepstatin (1 μg/ml) and 1 mM PMSF saturated). Separated proteins in 10% SDS/PAGE gels were transferred to PVDF membranes and blocked in TBS solution containing 0.1% Tween 20 and 5% bovine serum albumin (BSA) for 1 hour at room temperature. Immunodetection of specific proteins was carried out by incubation with primary antibodies against p-ERK (1:1000; #4695 Cell Signaling Technology) and ERK (1:1000, M5670, Sigma). Membranes were incubated with horseradish peroxidase-conjugated secondary antibody was added and proteins detected by chemiluminescence system (GE Healthcare Europe GmbH). Compound of Formula (VIII) inhibited Ang II-induced ERK1+2 phosphorylation (FIG. 16B).
In general terms: In western blotting, separated proteins are transferred to a membrane and probed.

A further assay concerns NFAT. Nature of the assay: Gal4-NFAT / Gal4-Luc reporter assay in hICF. Particulars: hICF transfected with Gal4-Luc and Gal4-NFAT, stimulated 6 hours. It is filed as cell-based, human. On the procedure: hICF cells were transiently transfected for 24 hours with the Gal4-Luc reporter plasmid (which includes five Gal4 DNA binding sites fused to the luciferase gene) and the Gal4-NFAT1-415plasmid for 24 hours using Roti-Fect (Carl Roth GmbH & Co. KG, Karlsruhe, Germany). Then cells were stimulated for 6 hours and luciferase activity in the cell lysates was measured. The specific transactivation expressed as a percentage of activation relative to control. Compound of Formula (VIII) inhibited Ang II-induced NFAT activation (FIG. 16B).

The structures appear in SMILES notation.

As to `CCCCc1nc(Cl)c(CO)n1Cc1ccc(-c2ccccc2-c2nn[nH]n2)cc1` [Losartan, reference compound], the “Ang II-induced ERK1+2 phosphorylation” value in the assay with ERK1+2 is “inhibited”. For the same compound, the “Ang II-induced NFAT activation (luciferase)” value in the assay with NFAT is listed as “inhibited”.
